# Test results as given in patent publication US6316500A, “Aliphatically unsaturated hydroxy benzoates and preservative compositions thereof” (ISP Investments Inc., priority 1999, dated 2001).
# Tests used:
# Format in all cases: cell-based
# Details in all cases: for number of colonies per milliliter, 28 days: reinoculated at 21 days
# [1] = tested on: P. aeruginosa 9027; test: Activity test: preservative challenge test in emulsion, P. aeruginosa 9027
# Method: (§1) The emulsion was prepared by separately mixing components in phase A and phase B at 75-80° C. for 15 minutes. The phases were then combined and mixed for another 10 minutes and cooled to 45° C. with stirring. Preservative was then added followed by citric acid to adjust pH to from abut 6.5 to 7.5. Stirring of the resulting mixture was continued until a temperature of 30° C. was reached. The activity tests were carried out using the following microorganisms: A. niger, B. cepacia, C. albicans, E. coli, P. aeruginosa and S. aureus. 50 g aliquots of the test emulsion containing various amounts of the preservative admixture as reported in Tables I-V were inoculated with approximately 10^7 -10^8 of the test organisms. The test samples then were stirred to disperse the challenge inoculum. The samples were incubated and assayed at 48 hours, 7, 14, 21 and 28 days. The assays were performed on 1 g, of the test sample by serially diluting 10^3 to 10^6 of the original concentration. The plating medium for bacteria was Letheen agar and for fungi it was low pH Mycophil agar with Tween 20. Each plated sample was incubated for 48 hours at 37° C. for bacteria, 5 days at 25° C. for mold and 3 days at 25° C. for fungi. After incubation, readings of the number of colonies per milliliter (cfu/ml) were made results were determined, as reported in associated Tables IA-VA. At 21 days the test product was reinoculated with half of the original inoculum.
# [2] = tested on: A. niger 16404; test: Activity test: preservative challenge test in emulsion, A. niger 16404
# Method: as §1
# [3] = tested on: S. aureus 6538; test: Activity test: preservative challenge test in emulsion, S. aureus 6538
# Method: as §1
# [4] = tested on: B. cepacia 25416; test: Activity test: preservative challenge test in emulsion, B. cepacia 25416
# Method: as §1
# [5] = tested on: E. coli 8739; test: Activity test: preservative challenge test in emulsion, E. coli 8739
# Method: as §1
# [6] = tested on: C. albicans 10231; test: Activity test: preservative challenge test in emulsion, C. albicans 10231
# Method: as §1
smiles,measurement,setting,value
"CC=CC=CCOC(=O)c1ccc(O)cc1O [2,4-Hexadienyl-2,4-dihydroxybenzoate, 2,4-Hexadienyl-2,4-Dihydroxybenzoate]","number of colonies per milliliter, 48 hr",[1]; 0.5% preservative in emulsion,< 10 cfu/ml
same,"number of colonies per milliliter, 7 days",[1]; 0.5% preservative in emulsion,< 10 cfu/ml
same,"number of colonies per milliliter, 14 days",[1]; 0.5% preservative in emulsion,< 10 cfu/ml
same,"number of colonies per milliliter, 21 days",[1]; 0.5% preservative in emulsion,< 10 cfu/ml
same,"number of colonies per milliliter, 28 days",[1]; 0.5% preservative in emulsion,< 10 cfu/ml
same,"number of colonies per milliliter, 48 hr",[2]; 0.5% preservative in emulsion,4200 cfu/ml
same,"number of colonies per milliliter, 7 days",[2]; 0.5% preservative in emulsion,30 cfu/ml
same,"number of colonies per milliliter, 14 days",[2]; 0.5% preservative in emulsion,< 10 cfu/ml
same,"number of colonies per milliliter, 21 days",[2]; 0.5% preservative in emulsion,< 10 cfu/ml
same,"number of colonies per milliliter, 28 days",[2]; 0.5% preservative in emulsion,< 10 cfu/ml
same,"number of colonies per milliliter, 48 hr",[3]; 0.5% preservative in emulsion,< 10 cfu/ml
same,"number of colonies per milliliter, 7 days",[3]; 0.5% preservative in emulsion,< 10 cfu/ml
same,"number of colonies per milliliter, 14 days",[3]; 0.5% preservative in emulsion,< 10 cfu/ml
same,"number of colonies per milliliter, 21 days",[3]; 0.5% preservative in emulsion,< 10 cfu/ml
same,"number of colonies per milliliter, 28 days",[3]; 0.5% preservative in emulsion,< 10 cfu/ml
same,"number of colonies per milliliter, 48 hr",[4]; 0.5% preservative in emulsion,< 10^6 cfu/ml
same,"number of colonies per milliliter, 7 days",[4]; 0.5% preservative in emulsion,< 10^6 cfu/ml
same,"number of colonies per milliliter, 14 days",[4]; 0.5% preservative in emulsion,< 10^6 cfu/ml
same,"number of colonies per milliliter, 21 days",[4]; 0.5% preservative in emulsion,< 10^6 cfu/ml
same,"number of colonies per milliliter, 28 days",[4]; 0.5% preservative in emulsion,< 10^6 cfu/ml
same,"number of colonies per milliliter, 48 hr",[5]; 0.5% preservative in emulsion,< 10 cfu/ml
same,"number of colonies per milliliter, 7 days",[5]; 0.5% preservative in emulsion,< 10 cfu/ml
same,"number of colonies per milliliter, 14 days",[5]; 0.5% preservative in emulsion,< 10 cfu/ml
same,"number of colonies per milliliter, 21 days",[5]; 0.5% preservative in emulsion,< 10 cfu/ml
same,"number of colonies per milliliter, 28 days",[5]; 0.5% preservative in emulsion,< 10 cfu/ml
same,"number of colonies per milliliter, 48 hr",[6]; 0.5% preservative in emulsion,< 10 cfu/ml
same,"number of colonies per milliliter, 7 days",[6]; 0.5% preservative in emulsion,< 10 cfu/ml
same,"number of colonies per milliliter, 14 days",[6]; 0.5% preservative in emulsion,< 10 cfu/ml
same,"number of colonies per milliliter, 21 days",[6]; 0.5% preservative in emulsion,< 10 cfu/ml
same,"number of colonies per milliliter, 28 days",[6]; 0.5% preservative in emulsion,< 10 cfu/ml
"CC=CC=CCOC(=O)c1ccc(O)cc1 [2,4-Hexadienyl-4-Hydroxybenzoate]","number of colonies per milliliter, 48 hr",[1]; 0.5% preservative in emulsion,< 10 cfu/ml
same,"number of colonies per milliliter, 7 days",[1]; 0.5% preservative in emulsion,< 10 cfu/ml
same,"number of colonies per milliliter, 14 days",[1]; 0.5% preservative in emulsion,< 10 cfu/ml
same,"number of colonies per milliliter, 21 days",[1]; 0.5% preservative in emulsion,< 10 cfu/ml
same,"number of colonies per milliliter, 28 days",[1]; 0.5% preservative in emulsion,< 10 cfu/ml
same,"number of colonies per milliliter, 48 hr",[2]; 0.5% preservative in emulsion,4800 cfu/ml
same,"number of colonies per milliliter, 7 days",[2]; 0.5% preservative in emulsion,< 10 cfu/ml
same,"number of colonies per milliliter, 14 days",[2]; 0.5% preservative in emulsion,< 10 cfu/ml
same,"number of colonies per milliliter, 21 days",[2]; 0.5% preservative in emulsion,< 10 cfu/ml
same,"number of colonies per milliliter, 28 days",[2]; 0.5% preservative in emulsion,< 10 cfu/ml
same,"number of colonies per milliliter, 48 hr",[3]; 0.5% preservative in emulsion,< 10 cfu/ml
same,"number of colonies per milliliter, 7 days",[3]; 0.5% preservative in emulsion,< 10 cfu/ml
same,"number of colonies per milliliter, 14 days",[3]; 0.5% preservative in emulsion,< 10 cfu/ml
same,"number of colonies per milliliter, 21 days",[3]; 0.5% preservative in emulsion,< 10 cfu/ml
same,"number of colonies per milliliter, 28 days",[3]; 0.5% preservative in emulsion,< 10 cfu/ml
same,"number of colonies per milliliter, 48 hr",[4]; 0.5% preservative in emulsion,< 10^6 cfu/ml
same,"number of colonies per milliliter, 7 days",[4]; 0.5% preservative in emulsion,< 10^6 cfu/ml
same,"number of colonies per milliliter, 14 days",[4]; 0.5% preservative in emulsion,< 10^6 cfu/ml
same,"number of colonies per milliliter, 21 days",[4]; 0.5% preservative in emulsion,< 10^6 cfu/ml
same,"number of colonies per milliliter, 28 days",[4]; 0.5% preservative in emulsion,< 10^6 cfu/ml
same,"number of colonies per milliliter, 48 hr",[5]; 0.5% preservative in emulsion,< 10 cfu/ml
same,"number of colonies per milliliter, 7 days",[5]; 0.5% preservative in emulsion,< 10 cfu/ml
same,"number of colonies per milliliter, 14 days",[5]; 0.5% preservative in emulsion,< 10 cfu/ml
same,"number of colonies per milliliter, 21 days",[5]; 0.5% preservative in emulsion,< 10 cfu/ml
same,"number of colonies per milliliter, 28 days",[5]; 0.5% preservative in emulsion,< 10 cfu/ml
same,"number of colonies per milliliter, 48 hr",[6]; 0.5% preservative in emulsion,< 10 cfu/ml
same,"number of colonies per milliliter, 7 days",[6]; 0.5% preservative in emulsion,< 10 cfu/ml
same,"number of colonies per milliliter, 14 days",[6]; 0.5% preservative in emulsion,< 10 cfu/ml
same,"number of colonies per milliliter, 21 days",[6]; 0.5% preservative in emulsion,< 10 cfu/ml
same,"number of colonies per milliliter, 28 days",[6]; 0.5% preservative in emulsion,< 10 cfu/ml
"C#CCOC(=O)c1ccc(O)cc1O [Propargyl 2,4-Dihydroxybenzoate]","number of colonies per milliliter, 48 hr",[1]; 0.2% preservative in emulsion,< 10 cfu/ml
same,"number of colonies per milliliter, 7 days",[1]; 0.2% preservative in emulsion,< 10 cfu/ml
same,"number of colonies per milliliter, 14 days",[1]; 0.2% preservative in emulsion,< 10 cfu/ml
same,"number of colonies per milliliter, 21 days",[1]; 0.2% preservative in emulsion,< 10 cfu/ml
same,"number of colonies per milliliter, 28 days",[1]; 0.2% preservative in emulsion,< 10 cfu/ml
same,"number of colonies per milliliter, 48 hr",[2]; 0.2% preservative in emulsion,3500 cfu/ml
same,"number of colonies per milliliter, 7 days",[2]; 0.2% preservative in emulsion,< 10 cfu/ml
same,"number of colonies per milliliter, 14 days",[2]; 0.2% preservative in emulsion,< 10 cfu/ml
same,"number of colonies per milliliter, 21 days",[2]; 0.2% preservative in emulsion,< 10 cfu/ml
same,"number of colonies per milliliter, 28 days",[2]; 0.2% preservative in emulsion,< 10 cfu/ml
same,"number of colonies per milliliter, 48 hr",[3]; 0.2% preservative in emulsion,< 10 cfu/ml
same,"number of colonies per milliliter, 7 days",[3]; 0.2% preservative in emulsion,< 10 cfu/ml
same,"number of colonies per milliliter, 14 days",[3]; 0.2% preservative in emulsion,< 10 cfu/ml
same,"number of colonies per milliliter, 21 days",[3]; 0.2% preservative in emulsion,< 10 cfu/ml
same,"number of colonies per milliliter, 28 days",[3]; 0.2% preservative in emulsion,< 10 cfu/ml
same,"number of colonies per milliliter, 48 hr",[4]; 0.2% preservative in emulsion,< 10 cfu/ml
same,"number of colonies per milliliter, 7 days",[4]; 0.2% preservative in emulsion,< 10 cfu/ml
same,"number of colonies per milliliter, 14 days",[4]; 0.2% preservative in emulsion,< 10 cfu/ml
same,"number of colonies per milliliter, 21 days",[4]; 0.2% preservative in emulsion,< 10 cfu/ml
same,"number of colonies per milliliter, 28 days",[4]; 0.2% preservative in emulsion,< 10 cfu/ml
same,"number of colonies per milliliter, 48 hr",[5]; 0.2% preservative in emulsion,< 10 cfu/ml
same,"number of colonies per milliliter, 7 days",[5]; 0.2% preservative in emulsion,< 10 cfu/ml
same,"number of colonies per milliliter, 14 days",[5]; 0.2% preservative in emulsion,< 10 cfu/ml
same,"number of colonies per milliliter, 21 days",[5]; 0.2% preservative in emulsion,< 10 cfu/ml
same,"number of colonies per milliliter, 28 days",[5]; 0.2% preservative in emulsion,< 10 cfu/ml
same,"number of colonies per milliliter, 48 hr",[6]; 0.2% preservative in emulsion,540 cfu/ml
same,"number of colonies per milliliter, 7 days",[6]; 0.2% preservative in emulsion,< 10 cfu/ml
same,"number of colonies per milliliter, 14 days",[6]; 0.2% preservative in emulsion,< 10 cfu/ml
same,"number of colonies per milliliter, 21 days",[6]; 0.2% preservative in emulsion,< 10 cfu/ml
same,"number of colonies per milliliter, 28 days",[6]; 0.2% preservative in emulsion,< 10 cfu/ml
"C#CCOC(=O)c1ccc(O)c(O)c1 [Propargyl 3,4-Dihydroxybenzoate]","number of colonies per milliliter, 48 hr",[1]; 0.5% preservative in emulsion,< 10 cfu/ml
same,"number of colonies per milliliter, 7 days",[1]; 0.5% preservative in emulsion,< 10 cfu/ml
same,"number of colonies per milliliter, 14 days",[1]; 0.5% preservative in emulsion,< 10 cfu/ml
same,"number of colonies per milliliter, 21 days",[1]; 0.5% preservative in emulsion,< 10 cfu/ml
same,"number of colonies per milliliter, 28 days",[1]; 0.5% preservative in emulsion,< 10 cfu/ml
same,"number of colonies per milliliter, 48 hr",[2]; 0.5% preservative in emulsion,< 10 cfu/ml
same,"number of colonies per milliliter, 7 days",[2]; 0.5% preservative in emulsion,< 10 cfu/ml
same,"number of colonies per milliliter, 14 days",[2]; 0.5% preservative in emulsion,< 10 cfu/ml
same,"number of colonies per milliliter, 21 days",[2]; 0.5% preservative in emulsion,< 10 cfu/ml
same,"number of colonies per milliliter, 28 days",[2]; 0.5% preservative in emulsion,< 10 cfu/ml
same,"number of colonies per milliliter, 48 hr",[3]; 0.5% preservative in emulsion,< 10 cfu/ml
same,"number of colonies per milliliter, 7 days",[3]; 0.5% preservative in emulsion,< 10 cfu/ml
same,"number of colonies per milliliter, 14 days",[3]; 0.5% preservative in emulsion,< 10 cfu/ml
same,"number of colonies per milliliter, 21 days",[3]; 0.5% preservative in emulsion,< 10 cfu/ml
same,"number of colonies per milliliter, 28 days",[3]; 0.5% preservative in emulsion,< 10 cfu/ml
same,"number of colonies per milliliter, 48 hr",[4]; 0.5% preservative in emulsion,< 10 cfu/ml
same,"number of colonies per milliliter, 7 days",[4]; 0.5% preservative in emulsion,< 10 cfu/ml
same,"number of colonies per milliliter, 14 days",[4]; 0.5% preservative in emulsion,< 10 cfu/ml
same,"number of colonies per milliliter, 21 days",[4]; 0.5% preservative in emulsion,< 10 cfu/ml
same,"number of colonies per milliliter, 28 days",[4]; 0.5% preservative in emulsion,< 10 cfu/ml
same,"number of colonies per milliliter, 48 hr",[5]; 0.5% preservative in emulsion,< 10 cfu/ml
same,"number of colonies per milliliter, 7 days",[5]; 0.5% preservative in emulsion,< 10 cfu/ml
same,"number of colonies per milliliter, 14 days",[5]; 0.5% preservative in emulsion,< 10 cfu/ml
same,"number of colonies per milliliter, 21 days",[5]; 0.5% preservative in emulsion,< 10 cfu/ml
same,"number of colonies per milliliter, 28 days",[5]; 0.5% preservative in emulsion,< 10 cfu/ml
same,"number of colonies per milliliter, 48 hr",[6]; 0.5% preservative in emulsion,< 10 cfu/ml
same,"number of colonies per milliliter, 7 days",[6]; 0.5% preservative in emulsion,< 10 cfu/ml
same,"number of colonies per milliliter, 14 days",[6]; 0.5% preservative in emulsion,< 10 cfu/ml
same,"number of colonies per milliliter, 21 days",[6]; 0.5% preservative in emulsion,< 10 cfu/ml
same,"number of colonies per milliliter, 28 days",[6]; 0.5% preservative in emulsion,< 10 cfu/ml
